The target of this experiment is T1, α-Lac (α-lactalbumin) (Bos taurus, UniProt P00711).
T1 construct: gene LALBA; native mature protein from bovine milk, type III, calcium depleted (apo form, EDTA buffer); signal peptide absent
T1 sequence (P00711 20-142): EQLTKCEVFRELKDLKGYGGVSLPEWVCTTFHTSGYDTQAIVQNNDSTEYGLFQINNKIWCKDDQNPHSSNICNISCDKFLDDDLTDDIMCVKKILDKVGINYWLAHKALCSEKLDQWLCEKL
Put plainly: isothermal titration calorimetry. As to conditions: 20 mM Tris pH 7, 25 °C, 3.5 mM EDTA (apo form), unreliable (authors urge care: no clear pre- or post-transition, heat does not level off). In kind it is binding. The text has this: isothermal titration calorimetry on α-Lac (α-lactalbumin)
On the technique in general: In ITC the heat of successive injections is recorded.

Turning to `COc1cccc2c1C(=O)c1c(O)c3c(c(O)c1C2=O)C[C@@](O)(C(=O)CO)C[C@@H]3O[C@H]1C[C@H](N)[C@H](O)[C@H](C)O1` [DOX, doxorubicin], for the setting “n = 0.9”, the “K (M^-1)” value is given as “(6.7 ± 1.61) × 10^3 M^-1”.

For `CC(=O)O[C@H]1C(=O)[C@@]2(C)[C@H]([C@H](OC(=O)c3ccccc3)[C@]3(O)C[C@H](OC(=O)[C@H](O)[C@@H](NC(=O)c4ccccc4)c4ccccc4)C(C)=C1C3(C)C)[C@]1(OC(C)=O)CO[C@@H]1C[C@@H]2O` [PTX, paclitaxel], the “K (M^-1)” value (up to 3% ethanol, n = 1.8) is “(14 ± 4.82) × 10^3 M^-1”.

For the origin of these results see publication PMC6255783, “A biophysical study on the mechanism of interactions of DOX or PTX with α-lactalbumin as a delivery carrier” (Scientific Reports, 2018).
